Data reported in ChEMBL document CHEMBL1130812, “The design and synthesis of inhibitors of the cysteinyl protease, Der p I” (Bioorg Med Chem Lett, 1998).
Where a SMILES comes first, the peptide text is derived from it. The star is where a group is joined. Boc = CC(C)(C)OC(=O)*

Columns and labels:
[1] = test system: Dermatophagoides pteronyssinus; test: Inhibitory activity against Cysteinyl protease was evaluated by method A in experiment 1
[2] = test system: Dermatophagoides pteronyssinus; test: Inhibitory activity against Cysteinyl protease was evaluated by method A in experiment 2
[3] = Inhibitory activity against Cysteinyl protease was evaluated; design: species or system Dermatophagoides pteronyssinus
[4] = test system: Dermatophagoides pteronyssinus; test: Inhibitory activity against Cysteinyl protease was evaluated by method A
[5] = test system: Dermatophagoides pteronyssinus; test: Inhibitory activity against Cysteinyl protease was evaluated by method B
[6] = Reversible Inhibitory activity on Cysteinyl protease was evaluated; design: species or system Dermatophagoides pteronyssinus

k obs / 1 [1] [M⁻¹ s⁻¹] | k obs / 1 [2] [M⁻¹ s⁻¹] | SMILES | further results
370000 | 50000 | CCCC[C@H](NC(=O)[C@H](C)NC(=O)[C@@H](NC(=O)c1ccccc1)C(C)C)C(=O)COC(=O)c1ccccc1 | –
4100 | 16000 | CCOC(=O)/C=C/[C@H](CC(C)C)NC(=O)[C@H](C)NC(=O)[C@@H](NC(=O)c1ccccc1)C(C)C | –
– | – | CC(C)C[C@@H](C=O)NC(=O)[C@H](C)NC(=O)[C@@H](NC(=O)OC(C)(C)C)C(C)C (Boc-Val-Ala-Leu-aldehyde) | Ki [3]: 14 nM
– | – | CCOC(=O)/C=C/[C@H](CC(C)C)NC(=O)[C@H](C)NC(=O)[C@@H](N)C(C)C | k obs / 1 [4]: < 100 M⁻¹ s⁻¹
2300 | 350000 | CC(C)C[C@@H](/C=C/S(=O)(=O)Cc1ccccc1)NC(=O)[C@H](C)NC(=O)[C@@H](NC(=O)OC(C)(C)C)C(C)C | –
– | – | CCCC[C@H](NC(=O)[C@H](C)NC(=O)[C@@H](NC(=O)c1ccccc1)C(C)C)C(=O)COC(=O)c1c(Cl)cccc1Cl | k obs / 1 [5]: 6.8e+07 M⁻¹ s⁻¹
– | – | CCCC[C@H](NC(=O)[C@H](C)NC(=O)[C@@H](NC(=O)c1ccccc1)C(C)C)C(=O)CBr | Ki [6]: 1.6 nM
6400 | 25000 | CC(C)C[C@@H](/C=C/S(=O)(=O)c1ccccc1)NC(=O)[C@H](C)NC(=O)[C@@H](NC(=O)OC(C)(C)C)C(C)C | –
1100 | 11000 | CC(C)C[C@@H](/C=C/S(C)(=O)=O)NC(=O)[C@H](C)NC(=O)[C@@H](NC(=O)OC(C)(C)C)C(C)C | –
– | – | CCOC(=O)/C=C/[C@H](CC(C)C)NC(=O)[C@H](C)NC(=O)[C@@H](NC(C)=O)C(C)C | k obs / 1 [4]: < 100 M⁻¹ s⁻¹
1700 | 7900 | CCOC(=O)/C=C/[C@H](CC(C)C)NC(=O)[C@H](C)NC(=O)[C@@H](NC(=O)OC(C)(C)C)C(C)C | –
– | – | CCCC[C@H](NC(=O)[C@H](C)NC(=O)[C@@H](NC(=O)c1ccccc1)C(C)C)C(=O)COC(=O)c1c(C)cccc1C | k obs / 1 [5]: 1.6e+07 M⁻¹ s⁻¹
1e+06 | 2.2e+06 | CCCC[C@H](NC(=O)[C@H](C)NC(=O)[C@@H](NC(=O)c1ccccc1)C(C)C)C(=O)COC(=O)c1c(C(F)(F)F)cccc1C(F)(F)F | k obs / 1 [5]: 1.3e+07 M⁻¹ s⁻¹
